Data as given in US20080032897A1, “Methods of screening for inhibitors of autoinhibited proteins” (priority 2004, published 2008).
“Also recorded” adds a separate entry of the source.

Assays:
[1] = tested on: Pak; conditions: reported; cited from earlier work
[2] = tested on: mixed-lineage kinases (MLKs); conditions: reported; cited from earlier work
[3] = target: T1, WASP (Homo sapiens, UniProt P42768); conditions: cited from earlier work
T1 sequence (P42768 with tags, fused parts or gaps limits assumed): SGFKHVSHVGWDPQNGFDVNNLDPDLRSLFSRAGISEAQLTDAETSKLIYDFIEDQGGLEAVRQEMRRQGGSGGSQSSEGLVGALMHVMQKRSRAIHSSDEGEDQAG

[4] = tested on: N-WASP; conditions: cited from earlier work
[5] = target: T2, full-length Pak1 (Homo sapiens, UniProt Q13153); test: luminescence-based (Kinase Glo) kinase assay, Cdc42-activated full-length Pak1; assay type: biochemical; conditions: 384-well plates, ATP-dependent luminescence, FIG. 9C
T2 construct: made in house; host or cells: Sf9 cells
Protocol: In some embodiments, the kinase activity of these two proteins (wild-type full length kinase, and isolated kinase domain) is measured in parallel using a validated luminescence-based assay. In this assay, kinase activity is based on a measurement of the residual ATP in the reaction following kinase-mediated ATP hydrolysis (Kinase Glo®; Promega®). This is an endpoint assay in which kinase reactions are allowed to proceed until a predetermined timepoint at which point the addition of the Kinase Glo® detection mix containing luciferase and luciferin stops the kinase reaction and utilizes the residual ATP to convert luciferin to oxyluciferin with the accompanying emission of a photon of light. Intensity of the emitted light is linearly correlated with ATP concentration. […]
The isolated kinase domain or full-length Pak1 in assay buffer is aliquotted into individual wells of a 384-well plate using a Bio-Tek MicroFill®. […] The reaction is stopped by the addition of Kinase Glo® reagent (15 μl/well), and is incubated at room temperature for 10-30 minutes to allow development of luminescence. Luminescence is read in a Cary Eclipse (Varian®) fluorometer/luminometer outfitted for reading 384-well plates.
A luminescence-based assay for kinase activity is used based on measurement of residual ATP in the reaction following kinase-mediated ATP hydrolysis. […]

T2 sequence (Q13153 whole entry): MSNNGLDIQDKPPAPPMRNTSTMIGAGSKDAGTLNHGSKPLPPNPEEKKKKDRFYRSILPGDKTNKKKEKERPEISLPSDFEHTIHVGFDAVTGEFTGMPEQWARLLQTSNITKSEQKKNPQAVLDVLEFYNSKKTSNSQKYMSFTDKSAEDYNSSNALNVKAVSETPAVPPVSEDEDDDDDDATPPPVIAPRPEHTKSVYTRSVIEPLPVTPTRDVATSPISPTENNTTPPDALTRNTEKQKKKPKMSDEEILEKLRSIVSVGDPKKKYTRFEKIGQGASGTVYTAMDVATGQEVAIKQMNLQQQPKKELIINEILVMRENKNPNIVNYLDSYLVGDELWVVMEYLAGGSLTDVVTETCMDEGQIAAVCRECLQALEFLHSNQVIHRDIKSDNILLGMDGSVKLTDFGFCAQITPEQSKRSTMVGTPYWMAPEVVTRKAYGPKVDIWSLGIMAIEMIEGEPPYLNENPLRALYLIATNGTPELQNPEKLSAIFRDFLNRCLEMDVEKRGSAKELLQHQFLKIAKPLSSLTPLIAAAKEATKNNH

## CCSCc1ccc2c(c1)c1c3c(c4c5cc(CSCC)ccc5n5c4c1n2[C@H]1C[C@](O)(C(=O)OC)[C@]5(C)O1)CNC3=O [CEP-1347]
[1]
  concentration at which Pak is inhibited: low micromolar
[2]
  potency against MLKs relative to Pak: at least an order of magnitude more potent

## CN(C)C[C@H](O)Cn1c2ccc(Br)cc2c2cc(Br)ccc21 (racemic) [wiskostatin]
[3]; NMR structure
  binding site on WASP: bound exclusively to the PBD in its autoinhibited conformation
[3]; biophysical experiments
  effect on autoinhibited fold of the PBD: stabilizes the autoinhibited fold of the PBD
[4]
  inhibition of N-WASP: chemical inhibitors of N-WASP

## CN[C@@H]1C[C@H]2O[C@@](C)([C@@H]1OC)n1c3ccccc3c3c4c(c5c6ccccc6n2c5c31)C(=O)NC4 [staurosporine]
[5]
  inhibition of Pak1 kinase activity: successfully detects inhibition of Pak; also recorded: readily detected
